ChEMBL document CHEMBL5053498, “Acremonamide, a Cyclic Pentadepsipeptide with Wound-Healing Properties Isolated from a Marine-Derived Fungus of the Genus Acremonium” (J Nat Prod, 2021)
Active and inactive are the calls of the source. No cut-off for these calls is given here.

Experiments:
[1] = test system: HaCaT; assay: Cytotoxicity against human HacaT cells assessed as cell viability at 3.12 to 50 uM measured after 48 hrs by MTT assay; type: cell-based; conditions: dose 3.12-50 µM
[2] = Induction of cell invasion in mouse NIH3T3 cells at 12.5 uM measured after 24 hrs by transwell assay; type: functional
[3] = test system: HaCaT; assay: Induction of wound healing in human HacaT cells assessed as increase in COL1A2 mRNA level at 12.5 uM by RT-PCR analysis; type: functional, cell-based
[4] = test system: NIH3T3; assay: Induction of wound healing in mouse NIH3T3 cells assessed as increase in ACTC1 mRNA level at 12.5 uM by RT-PCR analysis; type: functional, cell-based
[5] = test system: HaCaT; assay: Induction of cell migration in human HacaT cells at 12.5 uM measured after 24 hrs by transwell assay; type: functional
[6] = species: Mus musculus; assay: Induction of wound healing in BALB/c mouse assessed as reduction in wound area after 6 days; type: functional, organism-based; conditions: time 6.0 day
[7] = test system: NIH3T3; assay: Cytotoxicity against mouse NIH3T3 cells assessed as cell viability at 3.12 to 50 uM measured after 48 hrs by MTT assay; type: cell-based; conditions: nih3t3, 48 h, dose 3.12-50 µM
[8] = test system: Caco-2; assay: Cytotoxicity against human Caco-2 cells assessed as cell viability at 3.12 to 50 uM measured after 48 hrs by MTT assay; type: functional, cell-based; conditions: dose 3.12-50 µM
[9] = test system: NIH3T3; assay: Induction of cell migration in mouse NIH3T3 cells at 12.5 uM measured after 24 hrs by transwell assay; type: functional
[10] = Induction of cell invasion in human HacaT cells at 12.5 uM measured after 24 hrs by transwell assay; type: functional
[11] = test system: HaCaT; assay: Induction of wound healing in human HacaT cells assessed as increase in ACTC1 mRNA level at 12.5 uM by RT-PCR analysis; type: functional, cell-based
[12] = test system: NIH3T3; assay: Induction of wound healing in mouse NIH3T3 cells assessed as increase in COL1A2 mRNA level at 12.5 uM by RT-PCR analysis; type: functional, cell-based

## CC(C)[C@@H]1NC(=O)[C@@H](C(C)C)OC(=O)[C@H](C)N(C)C(=O)[C@H](Cc2ccccc2)NC(=O)[C@H](Cc2ccccc2)N(C)C1=O
[1]
  Activity: Non-Toxic
[2]
  Activity: 50%
[3]
  Activity: Active
[4]
  Activity: Active
[5]
  Activity: 50%
[6]
  Activity: Active
[7]
  Activity: Non-Toxic
[8]
  Activity: inactive
[9]
  Activity: 50%
[10]
  Activity: 50%
[11]
  Activity: Active
[12]
  Activity: Active
